Common to all, as to assay type: functional, cell-based
In one test the test system is A549. Put plainly: Cytotoxicity against human A549 assessed as cell viability measured after 48 hrs by MTT assay. Conditions: A549, 48 h. Background: Tetrazolium dyes change colour on reduction, which living cells bring about.
A further test deals with SMMC-7721. Put plainly: Cytotoxicity against human SMMC7721 assessed as cell viability measured after 48 hrs by MTT assay. The conditions noted are these: SMMC-7721, 48 h.
A further test deals with MCF7. Put plainly: Cytotoxicity against human MCF7 assessed as cell viability measured after 48 hrs by MTT assay. Conditions: MCF7, 48 h.
The test system of another test is HL-60. The experiment in a line: Cytotoxicity against human HL60 cells assessed as cell viability measured after 48 hrs by MTT assay. The conditions noted are these: HL-60, 48 h.
The test system of the next test is SW480. The experiment in a line: Cytotoxicity against human SW480 assessed as cell viability measured after 48 hrs by MTT assay. Conditions: SW480, 48 h.

For nine compounds, IC50 results are on record in ChEMBL document CHEMBL2331238, “Xanthoquinodins from the endolichenic fungal strain Chaetomium elatum” (J Nat Prod, 2013).

A word on the IC50: it is the concentration that inhibits the measured activity by half.

For `COC(=O)[C@@]12Oc3cc4c(c(O)c3C(=O)C1=C(O)CC[C@@H]2O)[C@@H]1C=C[C@@]2(C4)C(=O)c3cc(C)cc(O)c3C(O)=C2C1=O` [XANTHOQUINODIN A1], the IC50 in the test with A549 was 3.33 µM; in the test on SMMC-7721, 8 µM; in the test with MCF7, 14.2 µM; with HL-60 it was 6.22 µM; with SW480 it was 28.8 µM.
The matching figures for `COC(=O)[C@]1([C@@H]2CCC(=O)O2)CC(=O)c2c(cc3c(c2O)[C@@H]2C=C[C@@]4(C3)C(=O)c3cc(C)cc(O)c3C(O)=C4C2=O)O1` [XANTHOQUINODIN A3]: 15.3 µM, 16.7 µM, 7.47 µM, 4.18 µM and 15.5 µM.
With `COC(=O)[C@]1([C@@H]2CCC(=O)O2)CC(=O)c2c(cc3c(c2O)[C@@H]2C=C[C@]4(C3)C(=C(O)c3c(O)cc(C)cc3[C@@H]4O)C2=O)O1` [XANTHOQUINODIN A4], the IC50 is 25.5 µM in the test with A549; 19.2 µM in the test on SMMC-7721; 31.2 µM in the test on MCF7; more than 40 µM with HL-60; 18.9 µM in the test with SW480.
The matching figures for `COC(=O)[C@]12Oc3cc4c(c(O)c3C(=O)C1=C(O)CC[C@@H]2O)[C@@H]1C=C[C@]2(C4)C(=C(O)c3c(O)cc(C)cc3[C@@H]2O)C1=O` [XANTHOQUINODIN A6]: 2.04 µM, 2.87 µM, 5.64 µM, 3.75 µM and 6.44 µM.
In the same order, the values of `CC(=O)O[C@H]1C(=O)[C@@]2(C)[C@H]([C@H](OC(=O)c3ccccc3)[C@]3(O)C[C@H](OC(=O)[C@H](O)[C@@H](NC(=O)c4ccccc4)c4ccccc4)C(C)=C1C3(C)C)[C@]1(OC(C)=O)CO[C@@H]1C[C@@H]2O` [PACLITAXEL] are less than 0.008 µM, less than 0.008 µM, less than 0.008 µM, less than 0.008 µM and less than 0.008 µM.
In the same order, the values of `COC(=O)[C@@]12Oc3c(c(O)cc4c3[C@@H]3C=C[C@]5(C4)C(=C(O)c4c(O)cc(C)cc4[C@@H]5O)C3=O)C(=O)C1=C(O)CC[C@@H]2O` [XANTHOQUINODIN B5] are 11.4 µM, 15 µM, 38.2 µM, 4.74 µM and more than 40 µM.
For the compound `COC(=O)CC[C@H](O)[C@@]1(C(=O)OC)CC(=O)c2c(cc3c(c2O)[C@@H]2C=C[C@]4(C3)C(=C(O)c3c(O)cc(C)cc3[C@@H]4O)C2=O)O1` [XANTHOQUINODIN A5], the 50% inhibitory concentration (IC50) came out at 18.6 µM in the test on A549; 16.8 µM with SMMC-7721; 24 µM with MCF7; 26.6 µM in the test with HL-60; 16.2 µM in the test with SW480.
The matching figures for `COC(=O)[C@]12Oc3c(c(O)cc4c3[C@@H]3C=C[C@]5(C4)C(=C(O)c4c(O)cc(C)cc4[C@@H]5O)C3=O)C(=O)C1=C(O)CC[C@@H]2O` [XANTHOQUINODIN B4]: 25.1 µM, 27.7 µM, 30 µM, 3.01 µM and more than 40 µM.
As for `COC(=O)[C@]12Oc3cc4c(c(O)c3C(=O)C1=C(O)CC[C@@H]2O)[C@@H]1C=C[C@@]2(C4)C(=O)c3cc(C)cc(O)c3C(O)=C2C1=O` [XANTHOQUINODIN A2], the half-maximal inhibitory concentration (IC50) was 4.04 µM in the test on A549; 6.77 µM in the test with SMMC-7721; 20.8 µM in the test with MCF7; 5.5 µM in the test on HL-60; more than 40 µM in the test on SW480.
